From patent US20230330122A1, “PHARMACOLOGICAL TREATMENT OF AUTISM SPECTRUM DISORDER” (priority 2022, published 2023)

Columns and labels:
[1] = test system: SHANK3 autism mouse model; assay: Compulsive behavior in SHANK3 autism mouse model; format: in vivo
Description: FIGS. 5 and 6 present data collected by experiments using a SH3 And Multiple Ankyrin Repeat Domains 3 (SHANK3) autism mouse model. SHANK3 was the first to be associated with autism which was used by Joao Peca et al. (2011) to create the mouse model currently in use. […] The SHANK family of proteins has been strongly implicated as a contributing factor in autism in certain individuals and sits at the core of the alleged autistic pathway. The SHANK proteins lie at the heart of this synaptic map of autistic pathology, binding to Metabotropic Glutamate Receptors (mGluRs) indirectly, via the Homer family of adaptor proteins, and to both N-methyl-D-aspartate receptors (NMDARS) and Neuroligins (NLGNs) indirectly, via guanylate kinase-associated protein (GKAP) and Postsynaptic density protein 95 (PSD-95). They also link to the actin cytoskeleton, providing a multivalent scaffold upon which to build the postsynaptic density.
Compulsive behavior was used as a readout to evaluate the effectiveness of autistic symptom amelioration through NMN treatment. […] A baseline was recorded for both groups. The effect of a placebo was evaluated for both groups. NMN was administered to subjects of each group and the results were recorded. The results of treatment with NMN over 1 week were also recorded.

OCD mouse models = details: 3 different mouse models; cited from earlier work

Row | SMILES | compulsive behavior in seconds observed over a 5-minute period ([1]; SHANK3 autistic group and control group, NMN administered, also NMN over 1 week, FIG. 5) | safety of treatment ([1]; SHANK3 mouse model, NMN treatment) | treating OCD (OCD mouse models)
1 | NC(=O)c1ccc[n+]([C@@H]2O[C@H](COP(=O)([O-])O)[C@@H](O)[C@H]2O)c1 [NMN, nicotinamide mononucleotide] | significantly reducing the exhibition of compulsive behavior | SAFE | 
2 | O=C(O)C(Cc1c[nH]c2ccccc12)N1C(=O)c2ccccc2C1=O (stereo not drawn) [RG108] |  |  | successful in treating OCD
